Laboratory results from patent US9988623B2, “Methods of X-aptamer generation and compositions thereof” (Board of Regents of the University of Texas System, priority 2012, dated 2018).
Where “and” joins values, the source holds several entries; their conditions need not be identical. Equal values may be shown once. Oligonucleotides are written 5' to 3', each unit as a sugar letter and its base; * is a phosphorothioate linkage, no mark a phosphodiester; rarer units and linkages stand in square brackets, end groups in braces. Plain capitals give the bases only. d = 2'-deoxy (DNA)

B1: ESTA-1: ESTA-1 thioaptamer sequence (SEQ. ID. 32), IRdye 800-labelled, gold nanoparticle (FIG. 16) (nucleic acid)
DNA: CGCTCGGATCGATAAGCTTCGATCCCACTCTCCCGTTCACTTCTCCTCACGTCACGGATCCTCTAGAGCACTG
modifications: Thioaptamer, thioate positions not given here, IRdye 800 label, gold nanoparticle conjugate

What was measured:
CD44-HABD [1] = target: T1, CD44-HABD (Homo sapiens, UniProt P16070); test: Filter binding assay of biotinylated XAs with CD44-HABD
T1 construct: DNA encoding CD44-HABD (amino acid residues 20-178) was synthesized and cloned into expression vector pET19b; made in house
Method: Filter binding assay. The equilibrium binding constants of selected XAs for CD44-HABD were determined by a filter binding assay. The biotinylated XAs (1 nM) were incubated with varying concentrations of CD44-HABD in 50 μL of 20 mM Tris, pH 8.0, 150 mM NaCl for 40 min at room temperature and then transferred to a 96-well dot-blot apparatus and filtered under vacuum onto nitrocellulose membranes, which retain the CD44-HABD along with any bound XAs. The amount of biotinylated XA retained at each spot was determined by chemiluminescent detection using the Chemiluminescent Nucleic Acid Detection Module (Thermo Scientific) following the manufacturer's instructions. The chemiluminescent signals were collected on a Chemimager (Alpha Innotech). Image analysis and quantification of spot intensities were performed using ImageJ (version 1.42q). Binding analysis was based on the spot intensities on the nitrocellulose membranes with subtraction of background spot intensity due to the buffer effect from all the data points. Saturation binding curves were generated by using GraphPad Prism with curve fits assuming a single binding site. The NH2 XA column lists KDs for XAs where X=amino-dU. The ADDA XA column lists KDs for XAs where X=ADDA-dU.
The equilibrium binding constants of the small constructs were determined by the filter binding assay. The derived equilibrium binding constants of the above small XA constructs are shown below in Table 4.

CD44-HABD [2] = target: T1, CD44-HABD; test: 1H-NMR titration of CD44-HABD with ADDA (equilibrium dissociation constant); assay type: binding
Method: ADDA binding to CD44-HABD. CD44-HABD was prepared in the NMR buffer (20 mM Tris, 50 mM NaCl, 5% (v/v) D2O, pH 6.7). ADDA was dissolved in DMSO (1.4 M) as stock solution. The ADDA sample for NMR was prepared in the same buffer (20 mM Tris, 50 mM NaCl, 1.25 mM ADDA, 0.1% (v/v) DMSO, 5% (v/v) D2O, pH 6.7). CD44-HABD (27 μM) with various concentration of ADDA (14 μM, 25 μM, 50 μM, 250 μM and 1250 μM) was also prepared in the same buffer. The ^1H-NMR spectra of CD44-HABD only, ADDA only and CD44-HABD in presence of ADDA were obtained.
The equilibrium dissociation constant of ADDA to CD44-HABD was determined by ^1H-NMR.

[3] = system: human pancreatic cancer xenograph; test: Near infrared imaging of IR800dye-labeled thioaptamer in mouse xenograft; assay type: in vivo; details: mouse with human pancreatic cancer xenograph
Excerpt: Use of Thioaptamers in vivo.

[4] = permonothioated full-length XA, X = ADDA-dU, read-out: KD (nM) ADDA XA
[5] = permonothioated full-length XA, X = amino-dU, read-out: KD (nM) NH2 XA

T1 sequence (P16070 20-178): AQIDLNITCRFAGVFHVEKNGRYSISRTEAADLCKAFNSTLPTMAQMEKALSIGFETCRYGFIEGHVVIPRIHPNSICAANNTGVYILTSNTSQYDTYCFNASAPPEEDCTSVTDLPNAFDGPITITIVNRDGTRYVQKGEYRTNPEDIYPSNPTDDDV

Molecule | Kd (CD44-HABD [1]; [4]) [nM] | Kd (CD44-HABD [1]; [5]) [nM] | also measured
XA2: permonothioated X-aptamer to CD44-HABD, SEQ ID NO 13; X = amino-dU or ADDA-dU (DNA NGCAGATCTGCAAGGGAACCAAGGACACTA; phosphorothioate; amino-dU or ADDA-dU modified; (1)..(1) n = X = 5-(aminoethyl-3-acrylimido)- deoxyuridine) | 78.3 ± 18.1 | 55.5 ± 13.4 | 
XA12: permonothioated X-aptamer to CD44-HABD, SEQ ID NO 23; X = amino-dU or ADDA-dU (DNA NNAAGGCCNGNTAAANGATATCCACTA; phosphorothioate; amino-dU or ADDA-dU modified; (1)..(2) n = X = 5-(aminoethyl-3-acrylimido)- deoxyuridine; (9)..(9) n = X = 5-(aminoethyl-3-acrylimido)- deoxyuridine; (11)..(11) n = X = 5-(aminoethyl-3-acrylimido)- deoxyuridine; (16)..(16) n = X = 5-(aminoethyl-3-acrylimido)- deoxyuridine) | 879 ± 135 | 963 ± 183 | 
XA10: permonothioated X-aptamer to CD44-HABD, SEQ ID NO 21; X = amino-dU or ADDA-dU (DNA dT*dT*dG*dG*dG*dG*dC*dC*dC*dA*dG*dT*dA*dG*dG*dT*dA*dA*dC*dC*dG*dG*dG*dG*dA*dC*dA*dG; further chemistry not given here) |  | 450 ± 180 | 
1 (DNA AAGGGAACCAAGGACACTAC; DNA, backbone not given here; tested as phosphodiester and as thiophosphate form) [Motif 1] |  |  | Kd (CD44-HABD [1]; truncated motif without X, phosphate backbone, read-out: Dissociation constant (nM), phosphoaptamer form): 10.3 ± 1.3 nM; Kd (CD44-HABD [1]; truncated motif without X, thiophosphate backbone, read-out: Dissociation constant (nM), thioaptamer form): 15 ± 2 nM
XA3: permonothioated X-aptamer to CD44-HABD, SEQ ID NO 14; X = amino-dU or ADDA-dU (DNA CCAAGGCCTGCAAGGGAACCAAGTCCANTA; phosphorothioate; amino-dU or ADDA-dU modified; (28)..(28) n = X = 5-(aminoethyl-3-acrylimido)- deoxyuridine) | 140 ± 16.8 | 111 ± 18.5 | 
XA7: permonothioated X-aptamer to CD44-HABD, SEQ ID NO 18; X = amino-dU or ADDA-dU (DNA NNAAGACGCANTAANGAACCAAGGACGTGA; phosphorothioate; amino-dU or ADDA-dU modified; (1)..(2) n = X = 5-(aminoethyl-3-acrylimido)- deoxyuridine; (11)..(11) n = X = 5-(aminoethyl-3-acrylimido)- deoxyuridine; (15)..(15) n = X = 5-(aminoethyl-3-acrylimido)- deoxyuridine) | 116 ± 20.7 | 306 ± 69.3 | 
XA8: permonothioated X-aptamer to CD44-HABD, SEQ ID NO 19; X = amino-dU or ADDA-dU (DNA CCAAGATCNGNAAGGTANCCGGGGACNG; phosphorothioate; amino-dU or ADDA-dU modified; (9)..(9) n = X = 5-(aminoethyl-3-acrylimido)- deoxyuridine; (11)..(11) n = X = 5-(aminoethyl-3-acrylimido)- deoxyuridine; (18)..(18) n = X = 5-(aminoethyl-3-acrylimido)- deoxyuridine; (27)..(27) n = X = 5-(aminoethyl-3-acrylimido)- deoxyuridine) | 274 ± 54.3 | 463 ± 82.4 | 
XA13: permonothioated X-aptamer to CD44-HABD, SEQ ID NO 24; X = amino-dU or ADDA-dU (DNA NGCAGATCTGCAAGGGAAAGATAGACACAG; phosphorothioate; amino-dU or ADDA-dU modified; (1)..(1) n = X = 5-(aminoethyl-3-acrylimido)- deoxyuridine) | 312 ± 68.5 | 1380 ± 237 | 
XA11: permonothioated X-aptamer to CD44-HABD, SEQ ID NO 22; X = amino-dU or ADDA-dU (DNA TTGGGACGTAAGTAANGGGGGACANGA; phosphorothioate; amino-dU or ADDA-dU modified; (16)..(16) n = X = 5-(aminoethyl-3-acrylimido)- deoxyuridine; (25)..(25) n = X = 5-(aminoethyl-3-acrylimido)- deoxyuridine) | 1090 ± 390 | 846 ± 151 | 
CC(=O)N[C@H]1[C@H]([C@H](O)[C@H](O)CO)OC(C(=O)O)=C[C@@H]1O [ADDA, N-acetyl-2,3-dehydro-2-deoxyneuraminic acid] |  |  | Kd (CD44-HABD [2]; 1H-NMR peak 7.7925 ppm, read-out: KD): 3080 µM; Kd (CD44-HABD [2]; 1H-NMR peak 7.9025 ppm, read-out: KD): 1440 µM; Kd (CD44-HABD [2]; 1H-NMR peak 7.9225 ppm, read-out: KD): 1720 µM; Kd (CD44-HABD [2]; 1H-NMR peak 7.9375 ppm, read-out: KD): 1920 µM; Kd (CD44-HABD [2]; 1H-NMR peak 7.9575 ppm, read-out: KD): 1710 µM; Kd (CD44-HABD [2]; 1H-NMR peak 7.9925 ppm, read-out: KD): 3430 µM; Kd (CD44-HABD [2]; average over the six selected 1H-NMR peaks, read-out: Average KD): 2220 µM and ~2000 µM
XA6: permonothioated X-aptamer to CD44-HABD, SEQ ID NO 17; X = amino-dU or ADDA-dU (DNA TTGGGGCCTGCAAGACGACCNAAACGANGA; phosphorothioate; amino-dU or ADDA-dU modified; (21)..(21) n = X = 5-(aminoethyl-3-acrylimido)- deoxyuridine; (28)..(28) n = X = 5-(aminoethyl-3-acrylimido)- deoxyuridine) | 150 ± 25.7 | 214 ± 31.6 | 
B1 |  |  | accumulation in tumor (near infrared image) [3]: accumulates in the tumor
